{
  "source": "paper PMC6344527",
  "about": "“Toxicity and possible mechanisms of action of honokiol from Magnolia denudata seeds against four mosquito species” (Scientific Reports, 2019)",
  "key": {"[1]": {"tested_on": "midgut regions of third-instar Ae. aegypti larvae", "experiment": "histologic analysis by Carson's trichrome staining", "type": "in vivo, Aedes aegypti", "conditions": "honokiol 6.5 mg/L or magnolol 25 mg/L (LC50), 24 h", "procedure": "At 24 h post-treatment, Ae. aegypti larvae untreated and treated with honokiol or magnolol were immediately fixed in Bouin’s fluid[75] at 4 °C for 24 h. Larvae were then dehydrated in an ethanol-tetrahydrofuran-xylene series and embedded in Paraplast X-tra (Sigma-Aldrich). The embedded preparations of the larvae were sectioned at a 5 μm thickness using a Microm HM 340E rotary microtome (Thermo Scientific, Walldorf, Germany). The sections were dried at 40 °C overnight, subsequently deparaffinized with CitriSolv (Fisher Scientific, Fair Lawn, NJ, USA), and rehydrated with a series of ethanol in phosphate-buffered saline (PBS) solutions[30]. The rehydrated sections were stained in Weigert’s iron hematoxylin for 30 s, followed by Carson’s trichrome staining procedure. This staining protocol stained the columnar and goblet cells of the midgut blue and red, respectively. These sections were then dehydrated, cleared in xylene, and mounted in EMS Permount (Electron Microscopy Sciences, Hatfield, PA, USA). Images were observed and captured using a DMIL LED microscope (Leica Microsystems, Wetzlar, Germany) equipped with a Leica MC 170 HD. Observations were taken of 15 larvae under the microscope."}, "[2]": {"tested_on": "whole-body homogenate from third-instar Aedes aegypti larvae (adenylate cyclase activity)", "experiment": "determination of cyclic AMP levels (octopamine-sensitive adenylate cyclase activity)", "type": "biochemical", "conditions": "100 μM; compared with control group / octopamine", "procedure": "The method of Perumalsamy et al.[42] was used to assess the in vitro octopamine-sensitive adenylate cyclase activity of the test compounds. In brief, whole bodies of 75 Ae. aegypti larvae (106.2 mg) were homogenized in 500 µL of 2 mM Tris-maleate buffer (pH 7.4) containing 0.8 mM ethylene glycol tetraacetic acid (EGTA). The adenylate cyclase activity was determined using the cAMP Biotrak Enzymeimmunoassay system according to the manufacturer’s protocol. The assay was conducted in a total volume of 100 µL containing 80 mM Tris-maleate buffer, 5 mM theophylline, 2 mM MgSO4, 0.5 mM adenosine triphosphate (ATP), 0.2 mM EGTA, 50 µL of whole-body homogenate (equivalent to 4.12 µg protein), and 1 µL of the test compounds in Tris-maleate buffer containing 0.2% ethanol. After incubation at 20 °C for 5 min, the reaction was initiated by addition of ATP. Incubation was performed at 30 °C for 3 min in a shaking water bath. The reaction was stopped by boiling for 2 min, and then, the assay tube was cooled and centrifuged at 8,000 × g for 10 min. Fifty microliters of the supernatant were assayed for cAMP levels.\nPolystyrene microplates (1 strip of 8 wells) coated with a goat anti-mouse polyclonal antibody were used. Fifty microliters of a mouse monoclonal antibody solution were added to each well except for the blank wells (or the nonspecific binding wells). The wells covered with the adhesive strip were incubated at 25 °C for 1 h in a shaking incubator (480 rpm). After washing with 400 µL of wash buffer four times, 50 μL of the two neolignan samples for cAMP determination and cAMP standard were added to wells. Control, blank (nonspecific binding), and zero standard wells were supplemented with 50 μL of a diluent RD5-55 buffer. […] The optical densities at 450 and 540 nm were determined using the microplate reader described above. The readings at 540 nm were subtracted from the readings at 450 nm. The cAMP concentrations are expressed as nmol/µg protein. The results are expressed as the means ± SEs of triplicate samples from three independent experiments."}, "[3]": {"tested_on": "third-instar larvae of insecticide-susceptible Culex pipiens pallens", "experiment": "contact mortality bioassay, 24 h exposure", "type": "in vivo", "conditions": "for LC50: Culex pipiens, 24 h, read-out: LC50 (mg/L) (95% CI)", "procedure": "(§1) A contact mortality bioassay[25] was used to evaluate the toxicity of all compounds against third-instar larvae of the four mosquito species. Each test compound in methanol was suspended in DW with Triton X-100 (20 µL/L). Groups of 20 mosquito larvae were separately placed into paper cups (270 mL) containing each compound solution (250 mL). […] Negative controls consisted of a methanol–Triton X-100 solution in DW.\n(§2) Treated and control (methanol–Triton X-100 solution only) larvae were maintained under the same conditions as those used for colony maintenance without providing food. Larval mortalities were determined 24 h post-treatment. […] All treatments were performed three times using 20 larvae per replicate.\n(§3) The concentration of the test compounds required to produce 50% AChE inhibitory activity (IC50) was determined using the SAS 9.13 program (Cary: SAS Institute; 2014). Concentration-mortality data were subjected to probit analysis using the SAS 9.13 program. […] Statistical analyses were performed using the SAS 9.13 program. Multiple linear regression and correlation analysis were performed using the SPSS 24 program (Armonk: IBM Corp.; 2016)."}, "[4]": {"tested_on": "third-instar larvae of insecticide-resistant Anopheles sinensis", "experiment": "contact mortality bioassay, 24 h exposure", "type": "in vivo", "conditions": "Table 5, larvae resistant to deltamethrin and temephos, 24 h exposure", "procedure": "as §1, §2, §3"}, "[5]": {"tested_on": "third-instar larvae of insecticide-susceptible Aedes albopictus", "experiment": "contact mortality bioassay, 24 h exposure", "type": "in vivo", "procedure": "as §1, §2, §3"}, "[6]": {"tested_on": "third-instar larvae of insecticide-susceptible Aedes aegypti", "experiment": "contact mortality bioassay, 24 h exposure", "type": "in vivo", "conditions": "for LC50: Aedes aegypti, 24 h, read-out: LC50 (mg/L) (95% CI)", "procedure": "as §1, §2, §3"}, "[7]": {"parameters": "method as in PMID 20877235", "conditions": "cited from earlier work"}, "[8]": {"tested_on": "larvae of four mosquito species (Cx. pipiens pallens, Ae. aegypti, Ae. albopictus, and An. sinensis)", "experiment": "contact mortality bioassay, range over four mosquito species", "type": "in vivo", "conditions": "24 h", "procedure": "as §1, §2, §3"}, "[9]": {"conditions": "Table 6, structure-activity series, 24 h exposure"}, "[10]": {"conditions": "Table 2, KS-CP strain, 24 h exposure, listed as Pure honokiol"}, "[11]": {"conditions": "Table 7, structure-activity series, 24 h exposure"}, "[12]": {"conditions": "Table 3, 24 h exposure, listed as Pure honokiol"}},
  "note": "Like-named read-outs stand apart in the source and are kept apart here.",
  "data": [
    {"smiles": "C=CCc1ccc(O)c(-c2ccc(O)c(CC=C)c2)c1", "note": "[Honokiol, 2-(4-hydroxy-3-prop-2-enyl-phenyl)-4-prop-2-enyl-phenol]", "values": [
      {"measurement": "histology of midgut region (Carson's staining)", "setting": "[1]", "result": "indistinct damaged midgut epithelial layers"},
      {"measurement": "cAMP levels", "setting": "[2]", "result": "significantly higher than that induced by the control group"},
      {"measurement": "LC50", "setting": "[3]; Table 2, KS-CP strain, 24 h exposure", "result": 6.32, "unit": "mg/L"},
      {"measurement": "LC50", "setting": "[3]; [9]", "result": 6.32, "unit": "mg/L"},
      {"measurement": "times more toxic than the structural isomer magnolol", "setting": "[3]; Cx. pipiens pallens and Ae. aegypti larvae", "result": "approximately 4 times"},
      {"measurement": "LC90 (mg/L) (95% CI)", "setting": "[3]; Table 2, KS-CP strain, 24 h exposure, listed as Natural honokiol", "result": "18.78 (15.30–25.99) mg/L"},
      {"measurement": "LC50 (mg/L) (95% CI)", "setting": "[3]; [10]", "result": "6.38 (5.01–7.78) mg/L"},
      {"measurement": "LC90 (mg/L) (95% CI)", "setting": "[3]; [10]", "result": "19.30 (15.64–27.01) mg/L"},
      {"measurement": "LC90 (mg/L) (95% CI)", "setting": "[3]; [9]", "result": "18.78 (15.30–25.99) mg/L"},
      {"measurement": "times less toxic than temephos", "setting": "[3]; from 24 h LC50 values", "result": 390, "unit": "times"},
      {"measurement": "LC50", "setting": "[4]; Anopheles sinensis, read-out: LC50 (mg/L) (95% CI)", "result": 7.37, "unit": "mg/L"},
      {"measurement": "LC90 (mg/L) (95% CI)", "setting": "[4]", "result": "31.45 (22.90–56.82) mg/L"},
      {"measurement": "Slope ± SE", "setting": "[4]; probit slope", "result": "2.0 ± 0.35"},
      {"measurement": "LC50", "setting": "[5]; Aedes albopictus, Table 4, 24 h exposure, read-out: LC50 (mg/L) (95% CI)", "result": 6.13, "unit": "mg/L"},
      {"measurement": "LC90 (mg/L) (95% CI)", "setting": "[5]; Table 4, 24 h exposure", "result": "16.52 (13.74–21.90) mg/L"},
      {"measurement": "times less toxic than temephos", "setting": "[5]; from 24 h LC50 values", "result": 464, "unit": "times"},
      {"measurement": "Slope ± SE", "setting": "[5]; probit slope, Table 4, 24 h exposure", "result": "2.9 ± 0.52"},
      {"measurement": "LC50", "setting": "[6]; Table 3, 24 h exposure", "result": 6.51, "unit": "mg/L"},
      {"measurement": "LC50", "setting": "[6]; [11]", "result": 6.51, "unit": "mg/L"},
      {"measurement": "LC90 (mg/L) (95% CI)", "setting": "[6]; Table 3, 24 h exposure, listed as Natural honokiol", "result": "22.59 (17.70–34.15) mg/L"},
      {"measurement": "LC50 (mg/L) (95% CI)", "setting": "[6]; [12]", "result": "6.48 (5.11–7.90) mg/L"},
      {"measurement": "LC90 (mg/L) (95% CI)", "setting": "[6]; [12]", "result": "23.84 (18.41–37.36) mg/L"},
      {"measurement": "times less toxic than temephos", "setting": "[6]; from 24 h LC50 values", "result": 521, "unit": "times"},
      {"measurement": "toxicity in animal models", "setting": "[7]", "result": "no toxicity or serious adverse effects"},
      {"measurement": "LC50", "setting": "[8]", "result": "6.13 to 7.37", "unit": "µg/mL"}
    ]},
    {"smiles": "C=CCc1ccc(O)c(-c2cc(CC=C)ccc2O)c1", "note": "[Magnolol, magnolol]", "values": [
      {"measurement": "histology of midgut region (Carson's staining)", "setting": "[1]", "result": "indistinct midgut epithelial layers and PMs"},
      {"measurement": "cAMP levels", "setting": "[2]", "result": "significantly higher than that induced by the control group"},
      {"measurement": "LC50", "setting": "[3]; [9]", "result": 26, "unit": "mg/L"},
      {"measurement": "LC90 (mg/L) (95% CI)", "setting": "[3]; [9]", "result": "80.42 (63.28–117.4) mg/L"},
      {"measurement": "LC50", "setting": "[6]; [11]", "result": 25.7, "unit": "mg/L"},
      {"measurement": "LC90 (mg/L) (95% CI)", "setting": "[6]; [11]", "result": "83.14 (64.68–124.4) mg/L"}
    ]}
  ]
}
